Test results as given in patent US20260317324A1, “BIFUNCTIONAL COMPOUNDS FOR DEGRADING BRAF VIA UBIQUITIN PROTEOSOME PATHWAY” (Nurix Therapeutics, Inc., priority 2023, published 2026).
Values belong to the compound of their own block, whether it stands above or below them.

Key:
Format in all cases: cell-based
BRAF G469A = molecular target: T1, BRAF G469A (Homo sapiens, UniProt P15056, G469A); assay: BRAF HiBiT degradation assay, C-terminal HiBiT-tagged BRAF G469A overexpressed in HCT-116 BRAF−/− cells (clone 34), Nano-Glo HiBiT Lytic assay
T1 construct: Horizon Discovery (HCT-116 BRAF−/− cells); host or cells: HCT-116 BRAF−/− cells, clone 34, lentiviral transduction
In short: (§1)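 We quantified degradation of the C-terminally HiBiT-tagged, overexpressed mutant by lytic luminescence, normalizing to DMSO-treated cells with wild-type HCT-116 background subtracted. Dose series ran from 1 μM to 0.01 nM at 0.2% DMSO. Observed Dmax is % degraded at maximal effect.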

BRAF G466V = molecular target: T2, BRAF G466V (Homo sapiens, UniProt P15056, G466V); assay: BRAF HiBiT degradation assay, C-terminal HiBiT-tagged BRAF G466V overexpressed in HCT-116 BRAF−/− cells (clone 8), Nano-Glo HiBiT Lytic assay
T2 construct: Horizon Discovery (HCT-116 BRAF−/− cells); host or cells: HCT-116 BRAF−/− cells, clone 8, lentiviral transduction
In short: as §1

BRAF D594G = molecular target: T3, BRAF D594G (Homo sapiens, UniProt P15056, D594G); assay: BRAF HiBiT degradation assay, C-terminal HiBiT-tagged BRAF D594G overexpressed in HCT-116 BRAF−/− cells (clone 63), Nano-Glo HiBiT Lytic assay
T3 construct: Horizon Discovery (HCT-116 BRAF−/− cells); host or cells: HCT-116 BRAF−/− cells, clone 63, lentiviral transduction
In short: as §1

BRAF V600E = molecular target: T4, BRAF V600E (Homo sapiens, UniProt P15056, V600E); assay: BRAF HiBiT degradation assay, C-terminal HiBiT-tagged BRAF V600E A375 cells (clone 1F10), Nano-Glo HiBiT Lytic assay; details: for Dmax: A-375
T4 construct: endogenous C-terminal HiBiT fusion tag on BRAF V600E allele; endogenous in cells; host or cells: A375 clone 1F10 (CRISPR-Cas9 knock-in of the HiBiT tag; parental A375 from ATCC)
In short: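 Steps: seed HiBiT-tagged A375 clone 1F10 cells; incubate 24 h, 37 °C, 5% CO2; add compound (11 half-log points from 1 μM, 0.2% DMSO); lyse with HiBiT detection reagent plus LgBiT for 10 min; read luminescence; fit % protein remaining against concentration.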

[1] = Class 2, BRAF G469A, DC50 at 50%: fitted conc. at Y=50
[2] = HCT-116, Class 2, BRAF G469A, percentage protein degraded at maximal compound effect relative to DMSO
[3] = BRAF G466V, DC50 at 50%: fitted conc. at Y=50
[4] = HCT-116, BRAF G466V, percentage protein degraded at maximal compound effect relative to DMSO
[5] = BRAF D594G, DC50 at 50%: fitted conc. at Y=50
[6] = HCT-116, BRAF D594G, percentage protein degraded at maximal compound effect relative to DMSO
[7] = A375 (BRAF V600E), DC50 at 50%: fitted conc. at Y=50
[8] = A375 (BRAF V600E), percentage protein degraded at maximal compound effect relative to DMSO

T2 sequence (P15056 whole entry G466V): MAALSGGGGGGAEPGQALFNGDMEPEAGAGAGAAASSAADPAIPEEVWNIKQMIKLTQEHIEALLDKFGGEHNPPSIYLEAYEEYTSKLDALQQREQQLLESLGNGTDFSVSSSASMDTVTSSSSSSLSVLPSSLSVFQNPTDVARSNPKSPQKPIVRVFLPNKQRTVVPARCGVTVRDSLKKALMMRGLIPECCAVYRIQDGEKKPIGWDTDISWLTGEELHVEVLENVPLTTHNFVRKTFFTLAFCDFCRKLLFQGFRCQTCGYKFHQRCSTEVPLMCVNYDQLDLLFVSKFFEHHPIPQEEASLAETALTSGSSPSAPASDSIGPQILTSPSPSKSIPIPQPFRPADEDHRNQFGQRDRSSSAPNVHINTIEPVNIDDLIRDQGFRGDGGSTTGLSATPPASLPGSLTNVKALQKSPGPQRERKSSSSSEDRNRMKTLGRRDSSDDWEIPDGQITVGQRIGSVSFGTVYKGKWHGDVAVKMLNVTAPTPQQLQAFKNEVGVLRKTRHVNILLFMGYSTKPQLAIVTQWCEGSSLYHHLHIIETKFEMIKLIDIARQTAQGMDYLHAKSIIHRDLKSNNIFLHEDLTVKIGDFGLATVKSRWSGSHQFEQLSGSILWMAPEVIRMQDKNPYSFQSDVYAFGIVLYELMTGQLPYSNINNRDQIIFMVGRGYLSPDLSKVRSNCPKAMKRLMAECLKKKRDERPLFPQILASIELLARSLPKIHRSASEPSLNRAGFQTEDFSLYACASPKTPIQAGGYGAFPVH
T3 sequence (P15056 whole entry D594G): as the sequence (P15056 whole entry G466V) above, with V466G, D594G counted along it
T1 sequence (P15056 whole entry G469A): as the sequence (P15056 whole entry G466V) above, with V466G, G469A counted along it
T4 sequence (P15056 whole entry V600E, the tested form may be a part): as the sequence (P15056 whole entry G466V) above, with V466G, V600E counted along it

Structure (SMILES): O=C1CCC(c2ccc(N3CCC(CN4CCN(c5ccc(-n6cc(-c7cc(Cl)cc(NS(=O)(=O)N8CCCC8)c7F)c(-c7ccncc7)n6)cc5)CC4)CC3)cc2F)C(=O)N1 (racemic) [Compound 348, Rac-N-{5-chloro-3-[1-(4-{4-[(1-{4-[(3R)-2,6-dioxopiperidin-3-yl]-3-fluorophenyl}piperidin-4-yl)methyl]piperazin-1-yl}phenyl)-3-(pyridin-4-yl)-1H-pyrazol-4-yl]-2-fluorophenyl}pyrrolidine-1-sulfonamide]
DC50 (BRAF G469A; BRAF G469A (Class 2), HCT-116 BRAF−/− cells, DC50 at 50% degradation): 10 to 50 nM
Dmax (BRAF G469A; BRAF G469A (Class 2), HCT-116 BRAF−/− cells, observed Dmax relative to DMSO control): 30 to 70%
DC50 (BRAF G466V; BRAF G466V (Class 3), HCT-116 BRAF−/− cells, DC50 at 50% degradation): < 10 nM
Dmax (BRAF G466V; BRAF G466V (Class 3), HCT-116 BRAF−/− cells, observed Dmax relative to DMSO control): > 70%
DC50 (BRAF D594G; BRAF D594G (Class 3), HCT-116 BRAF−/− cells, DC50 at 50% degradation): < 10 nM
Dmax (BRAF D594G; BRAF D594G (Class 3), HCT-116 BRAF−/− cells, observed Dmax relative to DMSO control): 30 to 70%
DC50 (BRAF V600E; A375 (BRAF V600E, Class 1), DC50 at 50% degradation): < 10 nM
Dmax (BRAF V600E; A375 (BRAF V600E, Class 1), observed Dmax, % protein degraded relative to DMSO control): > 70%

Structure (SMILES): CCCS(=O)(=O)Nc1cccc(-c2cn(-c3ccc(C4CCN(CC5CCN(c6ccc([C@@H]7CCC(=O)NC7=O)cc6)CC5)CC4)cc3)nc2-c2ccncc2)c1F [Compound 15, N-{3-[1-(4-{1-[(1-{4-[(3S)-2,6-dioxopiperidin-3-yl]phenyl}piperidin-4-yl)methyl]piperidin-4-yl}phenyl)-3-(pyridin-4-yl)-1H-pyrazol-4-yl]-2-fluorophenyl}propane-1-sulfonamide]
DC50 (BRAF G469A; [1]): > 500 nM
Dmax (BRAF G469A; [2]): < 30%
DC50 (BRAF G466V; [3]): 10 to 50 nM
Dmax (BRAF G466V; [4]): 30 to 70%
DC50 (BRAF D594G; [5]): > 500 nM
Dmax (BRAF D594G; [6]): 30 to 70%
DC50 (BRAF V600E; [7]): 10 to 50 nM
Dmax (BRAF V600E; [8]): > 70%

Structure (SMILES): CCCS(=O)(=O)Nc1cccc(-c2nc(C(C)(C)C)sc2-c2ccnc(Nc3ccc(N4CCN(CC5CCN(c6ccc(C7CCC(=O)NC7=O)cn6)CC5)CC4)cc3)n2)c1F (racemic) [Compound 47, Rac-N-[3-(2-tert-butyl-5-{2-[(4-{4-[(1-{5-[(3R)-2,6-dioxopiperidin-3-yl]pyridin-2-yl}piperidin-4-yl)methyl]piperazin-1-yl}phenyl)amino]pyrimidin-4-yl}-1,3-thiazol-4-yl)-2-fluorophenyl]propane-1-sulfonamide]
DC50 (BRAF G469A; [1]): > 500 nM
Dmax (BRAF G469A; [2]): 30 to 70%
DC50 (BRAF G466V; [3]): < 10 nM
Dmax (BRAF G466V; [4]): > 70%
DC50 (BRAF D594G; [5]): 10 to 50 nM
Dmax (BRAF D594G; [6]): 30 to 70%
DC50 (BRAF V600E; [7]): < 10 nM
Dmax (BRAF V600E; [8]): > 70%

The next lines start with the values.

DC50 (BRAF G469A; [1]): > 500 nM
Dmax (BRAF G469A; [2]): < 30%
DC50 (BRAF G466V; [3]): > 500 nM
Dmax (BRAF G466V; [4]): 30 to 70%
DC50 (BRAF D594G; [5]): > 500 nM
Dmax (BRAF D594G; [6]): 30 to 70%
DC50 (BRAF V600E; [7]): 10 to 50 nM
Dmax (BRAF V600E; [8]): > 70%
Structure (SMILES): CCCS(=O)(=O)Nc1cccc(-c2nc(C3CCN(C(=O)C4CCN(CC5CCN(c6ccc(C7CCC(=O)NC7=O)cn6)CC5)CC4)CC3)sc2-c2ccnc(NC)n2)c1F (racemic) [Compound 217, Rac-N-{3-[2-(1-{1-[(1-{5-[(3R)-2,6-dioxopiperidin-3-yl]pyridin-2-yl}piperidin-4-yl)methyl]piperidine-4-carbonyl}piperidin-4-yl)-5-[2-(methylamino)pyrimidin-4-yl]-1,3-thiazol-4-yl]-2-fluorophenyl}propane-1-sulfonamide]

DC50 (BRAF G469A; [1]): > 500 nM
Dmax (BRAF G469A; [2]): 30 to 70%
DC50 (BRAF G466V; [3]): 50 to 500 nM
Dmax (BRAF G466V; [4]): 30 to 70%
DC50 (BRAF D594G; [5]): > 500 nM
Dmax (BRAF D594G; [6]): 30 to 70%
DC50 (BRAF V600E; [7]): 10 to 50 nM
Dmax (BRAF V600E; [8]): > 70%
Structure (SMILES): CCCS(=O)(=O)Nc1cccc(-c2cn(C3CCN(C(=O)C4CCN(C(=O)C5CCN(c6ccc(C7CCC(=O)NC7=O)cn6)CC5)CC4)CC3)nc2-c2ccncc2)c1F (racemic) [Compound 7, Rac-N-[3-(1-{1-[1-(1-{5-[(3R)-2,6-dioxopiperidin-3-yl]pyridin-2-yl}piperidine-4-carbonyl)piperidine-4-carbonyl]piperidin-4-yl}-3-(pyridin-4-yl)-1H-pyrazol-4-yl)-2-fluorophenyl]propane-1-sulfonamide]
